In publication PMC11320730, “5-Methoxy-2-aminoindane Reverses Diet-Induced Obesity and Improves Metabolic Parameters in Mice: A Potential New Class of Antiobesity Therapeutics” (ACS Pharmacology & Translational Science, 2024):

How the values were obtained:
[1] = test system: liver of DIO C57BL/6 mice; assay: Liver weight, hepatic triglyceride and cholesterol contents, histopathology and Oil Red O staining in DIO mice; type: in vivo; conditions: 40 mg/kg/day
Protocol: (§1) Male C57BL/6 mice were used to establish DIO by feeding them a high-fat diet (HFD; 60% cal/L fat, 20% cal/L protein, and 20% cal/L carbohydrates; Research Diet, D12492) for 18 weeks. After this period, mice were treated with either vehicle (sterile water, N = 8) or MEAI (N = 11) daily for 28 days by gavage at a dose of 40 mg/kg/day. Age-matched control mice (N = 10) on a standard diet (STD; 14% kcal fat, 24% kcal protein, 62% kcal carbohydrates; NIH-31 rodent diet) received vehicle daily. The body weight of all mice was monitored daily, and total body fat and lean mass were determined by EchoMRI-100H (Echo Medical Systems LLC, Houston, Texas, USA). On day 29, at the end of the experimental period, mice were euthanized by a cervical dislocation under anesthesia. The kidneys, brain, liver, and fat pads were removed and weighed, and samples were either snap-frozen or fixed in buffered 4% formalin. Trunk blood was collected to determine the biochemical parameters.
At the time of animal sacrifice, liver tissue was extracted following the established protocol described previously.[19] The extracted liver tissue was then analyzed for cholesterol and triglyceride contents using a Cobas C-111 chemistry analyzer (Roche, Switzerland).
Paraffin-embedded liver sections (5 μm) from five animals per group were processed for hematoxylin–eosin staining. Liver images were captured using a Zeiss Axio Scope A1 light microscope (Carl Zeiss AG, Jena, Germany) equipped with a Zeiss AxioCam ICc 5 color camera. Ten random 40× fields of view were taken from each animal to obtain representative images.
Liver cryosections (8 μm) were stained with Oil Red O (Cat# ab150678; Abcam, Cambridge, UK) following the manufacturer’s protocol. Images were acquired as described above. For quantitative analysis of Oil Red O staining, the area of lipid droplets in the liver cryosections was measured using ImageJ software.

[2] = test system: hepatic lipid metabolism regulators; assay: Western blotting of liver proteins in DIO mice; type: in vivo; conditions: 40 mg/kg/day
Protocol: as §1
Liver samples were prepared in a RIPA buffer (25 mM Tris–HCl pH 7.6, 150 mM NaCl, 1% NP-40, 1% sodium deoxycholate, 0.1% SDS), and the homogenates were prepared by using the Bullet Blender and zirconium oxide beads (catalog no. ZROB10, Next Advanced, Inc., New York, USA). Protein concentrations were measured with the Pierce BCA Protein Assay Kit (catalog no. 23225, Thermo Scientific, Illinois, USA). Samples were resolved by SDS-PAGE (4–15% acrylamide, 150 V) and transferred to PVDF or nitrocellulose membranes using the Trans-Blot Turbo Transfer System (Bio-Rad, California). The membranes were then incubated for 1 h in 5% milk (in 1× M TBS-T) to block unspecific binding. The membranes were incubated overnight with cluster of differentiation 36 (CD36; Abcam, Cambridge, UK; Cat# ab252922), stearoyl-CoA desaturase 1 (SCD1; Cell Signaling Technology, Danvers, Massachusetts; Cat# 2794S), fatty acid synthase (FASN; Cell Signaling Technology, Danvers, Massachusetts, USA; Cat# 3180S), 5′-adenosine monophosphate (AMP)-activated protein kinase alpha (AMPKα; Cell Signaling Technology, Danvers, Massachusetts, USA; Cat# 2532S), phosphorylated-AMPKα (Cell Signaling Technology, Danvers, Massachusetts, USA; Cat# 2535S), acetyl-CoA carboxylase (ACC; Cell Signaling Technology, Danvers, Massachusetts, USA; Cat# 3662S), and phosphorylated ACC (Cell Signaling Technology, Danvers, Massachusetts, USA; Cat# 3661S) antibodies at 4 °C. Antirabbit/mouse horseradish peroxidase (HRP)-conjugated secondary antibodies were used for 1 h at room temperature, followed by chemiluminescence detection using Clarity Western ECL Blotting Substrate (Bio-Rad, California). Densitometry was quantified by using ImageJ software. Quantification was normalized to anti-β actin antibody (Abcam, Cambridge, UK; Cat# ab49900) or valosin-containing protein (VCP) (Abcam, Cambridge, UK; Cat# ab204290).

[3] = test system: serotonin transporter (SERT); set-up: method as in PMID 30904940; conditions: cited from earlier work
5-HT2B = 5-HT2B (Homo sapiens, UniProt P41595); assay: Ligand binding assay (Eurofins); set-up: Eurofins (contract screening service); conditions: read-out: inhibitory activity (% inhibition of the binding of a specific ligand)
5-HT2B, sequence (P41595 whole entry): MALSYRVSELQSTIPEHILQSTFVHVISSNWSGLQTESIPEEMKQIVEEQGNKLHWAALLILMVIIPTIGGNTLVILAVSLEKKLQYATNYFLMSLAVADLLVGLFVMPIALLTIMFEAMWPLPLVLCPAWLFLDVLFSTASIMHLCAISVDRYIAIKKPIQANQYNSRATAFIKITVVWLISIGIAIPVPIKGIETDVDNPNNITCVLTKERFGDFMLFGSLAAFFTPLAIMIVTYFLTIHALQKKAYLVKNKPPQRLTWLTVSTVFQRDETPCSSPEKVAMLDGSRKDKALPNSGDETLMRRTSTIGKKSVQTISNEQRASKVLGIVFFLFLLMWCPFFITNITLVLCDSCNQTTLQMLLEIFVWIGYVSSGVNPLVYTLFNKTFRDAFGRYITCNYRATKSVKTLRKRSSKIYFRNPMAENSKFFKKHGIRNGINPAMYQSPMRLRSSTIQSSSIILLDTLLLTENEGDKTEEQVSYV
Protocol: MEAI at 10 μM was tested in ligand binding assays at Eurofins Inc., as described previously.[20] Compound binding was calculated as a % inhibition of the binding of a ligand specific for each target. Results showing an inhibition or stimulation higher than 50% are considered to represent significant effects of MEAI. In each experiment, and if applicable, the respective reference compound was tested concurrently with MEAI and the data were compared with historical values determined at Eurofins. The experiment was accepted in accordance with the Eurofins validation Standard Operating Procedure.

In the case of `COc1ccc2c(c1)CC(N)C2.Cl` (stereo not shown) [MEAI, 2,3-Dihydro-5-methoxy-1H-inden-2-amine hydrochloride], the “Oil Red O staining of liver” value ([1]; DIO mice, vs HFD vehicle) is reported as “decrease”, the hepatic cholesterol levels ([1]; DIO mice, vs HFD vehicle) is reported as “trend toward a reduction” and the “lipid vacuole numbers in liver” value ([1]; DIO mice, vs HFD vehicle) is reported as “reduced”. The liver triglycerides ([1]; DIO mice, vs HFD vehicle) was “significant reductions”, the liver weight ([1]; HFD-fed mice, 28 days) was “reduced” and the “liver weight to body weight ratio” value ([1]; HFD-fed mice, 28 days) was “normalized”. For the same compound, the CD36 protein levels [2] was “remained unchanged”, the FASN protein levels [2] was “significantly reduced” and the SCD1 protein levels [2] was “significantly reduced”. The “phosphorylated ACC (p-ACC) levels” value [2] was “did not significantly affect”, the “phosphorylated AMPK (p-AMPK)” value [2] was “trend toward increased” and the interaction with transporter [3] was “interacts”. For the same compound, the inhibition at 10 µM (5-HT2B) was over 50%.
